# Reference: paper PMC2992351 (ACS medicinal chemistry letters, 2010)
# Molecular target: Grb2 SH2 domain (Homo sapiens, UniProt P62993)
# Assay: Isothermal titration calorimetry
# Format: binding
# Settings: for Ka / ΔG^o / ΔH^o / ΔS^o / −TΔS^o: ITC at 298 K, average of at least two experiments; for Ka: association constant
# Sequence of Grb2 SH2 domain (P62993 60-152 limits assumed): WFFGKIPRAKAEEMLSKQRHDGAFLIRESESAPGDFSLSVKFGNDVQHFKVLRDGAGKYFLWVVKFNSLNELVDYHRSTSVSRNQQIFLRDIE
Substance,Ka,ΔG^o [kcal/mol],ΔH^o [kcal/mol],ΔS^o [cal mol^−1K^−1],−TΔS^o [kcal/mol],"fold lower affinity than acyclic control 4 (ITC, macrocycle vs its acyclic control)","difference in binding enthalpies of 7 and 8 (ITC, 7 vs 8) [kcal/mol]","fold greater affinity than linear control 8 (ITC, macrocycle 7 vs linear control 8)"
pYVNG (head to tail) [compound 1],(4.7 ± 0.11) × 10^4 M^−1,-6.4 ± 0.01,-3.5 ± 0.26,9.8 ± 0.20,-2.9 ± 0.06,about 10 fold,–,–
pYVNV (head to tail) [compound 2],(2.3 ± 0.21) × 10^6 M^−1,-8.7 ± 0.06,-4.3 ± 0.32,14.8 ± 0.54,-4.4 ± 0.16,–,–,–
pYVNVP (head to tail) [compound 7],(1.0 ± 0.20) × 10^7 M^−1,-9.6 ± 0.09,-4.3 ± 0.57,17.7 ± 1.20,-5.3 ± 0.36,–,2,about two-fold
